From article PMC12175168, “Refining the Amino Reactivity-Based Identification of Respiratory Sensitizers” (Chemical Research in Toxicology, 2025)
Several values for one entry are separate records, joined by “and”; a condition that tells them apart may be missing. Equal entries are not always repeated. Entries after “also recorded” stand apart in the source; their conditions may differ.

Legend:
[1] = DPRA-like chemoassay with Gly-pNA (24 h percent depletion); settings: PPB pH 7.4, 24 h, 25 °C, 50-fold excess of test compound
Experimental: (§1) In addition to the kinetic Gly-pNA chemoassay, the reactivity of the 27 compounds toward Gly-pNA and Lys-pNA was determined in terms of percentage depletions after reacting for 24 h at 25 °C employing the following DPRA-like setup: stock solutions for the test compounds were prepared by gravimetrically adding at least 3 mg of the respective compound into a glass vial (total volume 1.8 mL) and subsequent addition of 1 mL ACN. […] The stock solutions for Gly-pNA and Lys-pNA with a final concentration of 1.7 mM were prepared by dissolving the required amount in one of the three aqueous buffer solutions used for this DPRA-like chemoassay: phosphate buffer (80 mM, pH 7.4), phosphate buffer (80 mM, pH 10.2), and ammonium acetate buffer (100 mM, pH 10.2). Glass vials (1.8 mL) were used as reaction vessels.
(§2) In the final reaction mixtures, the concentration of Gly-pNA or Lys-pNA was 0.03 mM, and the test compound was 50 times in excess (1.5 mM). After incubation for 24 h at 25 °C, the free amount of either Gly-pNA or Lys-pNA was determined using the HPLC UV–vis method described for the kinetic Gly-pNA chemoassay. , The percentage depletion of Gly-pNA (D Gly) or Lys-pNA (D Lys) was determined directly from peak areas according to eq 3 Dx[%]=(Axcontrol−Ax/Axcontrol×100)withx=GlyorLys
(§3) In eq , A x and A x ^control are the peak areas of the chromatographic signal of either Gly-pNA (x = Gly) or Lys-pNA (x = Lys) at 315 nm after 24 h incubation with and without test compound, respectively.
(§4) Summary of experimental conditions of the DPRA-like setups used to determine
(§5) DGly, D Lys, and D DPRA data in Table 2 (main text).
(§6) Table S2. Overview of experimental conditions for the DPRA-like setups used to
(§7) determine 24 h percentage depletion rates for the reaction of the test compounds with
(§8) Gly-pNA, Lys-pNA, and the DPRA lysine peptide (literature data).

[2] = DPRA-like chemoassay with Lys-pNA (24 h percent depletion); settings: 25 °C, 50-fold excess of test compound
Experimental: as §1, §2, §3, §4, §5, §6, §7, §8

[3] = Stability assessment of test compounds in aqueous buffers (half-lives)
Experimental: To this end, the test compound was dissolved in 1 mL ACN in a glass vial. […] As reaction batches, 1.8 mL glass vials equipped with 400 μL glass inserts were used and filled with 220 μL of the respective aqueous buffer and 80 μL of the test compound stock solution. The depletion of the test compounds was recorded with the HPLC UV–vis instrument used for the kinetic Gly-pNA chemoassay. , Chromatographic separation of the reaction mixture was achieved using the gradient described for the Gly-pNA chemoassay previously , and an isocratic HPLC method (water/ACN 70:30, both with 0.1 vol % formic acid). The wavelengths used for the detection of the compound and the information on the used chromatographic method are given in the Supporting Information in Table S3.

DPRA lysine peptide = system: DPRA lysine peptide; set-up: method as in literature; settings: AAB pH 10.2, 24 h; ref literature; cited from earlier work
[4] = ref Krutz et al., Sadekar et al., Ponder et al., Karol et al., Hopkins et al.; cited from earlier work
[5] = Kinetic Gly-pNA chemoassay (second-order rate constant k Gly); settings: reaction with Gly-pNA, nominal test compound concentration; for k Gly ± s(k Gly), second-order rate constant: phosphate buffer 80 mM, 25 °C, ≥ values are minimum reactivity; for log k Gly: phosphate buffer;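 as to all read-outs here: Gly-pNA depletion followed over time by chromatographic peak area, with test compound in at least tenfold excess (pseudo-first-order), added from acetonitrile stock, at least three runs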
Experimental: The reactivity of the 27 test compounds toward Gly-pNA was quantified in terms of the second-order reaction rate constant k Gly using our Gly-pNA chemoassay. , In brief, stock solutions of the test compound were freshly obtained every day by gravimetrically adding the required amount into a 10 mL volumetric flask, which was subsequently filled to volume with acetonitrile (ACN). The required amounts of test compounds depended on their reactivity toward Gly-pNA. […] As usual for kinetic studies, fast reacting chemicals are applied at lower concentrations than little reactive candidates. All stock solutions were stored at 25 °C in a climate chamber before first use (ca. 30 min) and for repeating an experiment (max. 6 h). Gly-pNA stock solution (1.69 mM) was obtained by dissolving 3.3 mg Gly-pNA in 10 mL phosphate buffer solution (80 mM) and could be used for several weeks if stored at 4 °C. For all chemoassay experiments, 1.8 mL glass vials were used as reaction batches, which were initially filled with 1070 μL phosphate buffer (80 mM) and 30 μL Gly-pNA stock solution. To start the reaction, 400 μL of the test compound stock solutions was added. […] The time between the start of the reaction and the first analysis was measured with an electronic time clock. All reactions were performed under pseudo-1st order conditions with the electrophile being at least ten times in excess over Gly-pNA.
For these compounds, the minimum reactivity was estimated in terms of k Gly by plotting ln (A Gly ^ t /A Gly ^0) vs reaction time t (with A Gly ^ t and A Gly ^0 being the peak areas under the chromatographic signal for Gly-pNA at time t and at the beginning of the reaction (t = 0)). Linear regression through 0 (at t = 0) and the first measurement point yields slope s (see Figure S1) which is the pseudo-1st order rate constant k Gly ^pseudo that can be converted with the initial test compound concentration in the reactions mixture (c) into k Gly according to eq . 1 kGly=kGlypseudo/c
2 Ln(AGlyt/AGly0)≈−kGly·c·t+0.5·kGly·kloss·c·t^2 Here k loss is the first order rate constant covering all processes contributing to the loss of the test compounds, except the reaction with Gly-pNA. The regression parameter of the linear part of eq (= k Gly·c) is the pseudo-1st order rate constant k Gly ^pseudo and can be converted into k Gly according to eq (see above).
Linear regression of these plots provides slope s, which is again the pseudo-1st order rate constant, k Gly ^pseudo, and can be used to calculate k Gly according to eq . All experiments to determine k Gly have been conducted at least three times.

[6] = AAB (ammonium acetate buffer) pH 10.2, 24 h
[7] = PPB (phosphate buffer 80 mM) pH 7.4
[8] = aqueous ammonium acetate buffer with acetonitrile, pH 10.2
[9] = aqueous phosphate buffer with acetonitrile, pH 10.2
[10] = buffer, pH 7.4, half-lives t 1/2 ± s(t 1/2), PPB (phosphate buffer 80 mM) pH 7.4
[11] = buffer, pH 10.2, half-lives t 1/2 ± s(t 1/2), AAP (ammonium acetate buffer 100 mM) pH 10.2
[12] = buffer, pH 10.2, half-lives t 1/2 ± s(t 1/2), PPB (phosphate buffer 80 mM) pH 10.2

| Compound | D Gly ± s(D Gly), 24 h percent depletion of Gly-pNA [1] | D Lys ± s(D Lys), 24 h percent depletion of Lys-pNA [2, 6] [%] | D Lys ± s(D Lys), 24 h percent depletion of Lys-pNA ([2]; PPB pH 10.2, 24 h) [%] | half-lives t 1/2 ± s(t 1/2) [3, 7] | half-life [3, 8] [min] | half-life [3, 9] [min] | D DPRA ± s(D DPRA), depletion of the DPRA lysine peptide (DPRA lysine peptide) [%] | Classification as potential respiratory sensitizer or non-sensitizer [4] | k Gly ± s(k Gly), second-order rate constant [5] | half-life [3, 10] [min] | half-life [3, 11] [min] | half-life [3, 12] [min] | log k Gly [5] | half-life ([3]; aqueous phosphate buffer with acetonitrile, pH 7.4) [min] | half-lives t 1/2 ± s(t 1/2) ([3]; AAP (ammonium acetate buffer 100 mM) pH 10.2) | half-lives t 1/2 ± s(t 1/2) ([3]; PPB (phosphate buffer 80 mM) pH 10.2) |
| --- | --- | --- | --- | --- | --- | --- | --- | --- | --- | --- | --- | --- | --- | --- | --- | --- |
| C=CC(=O)OCC [F4, ethyl acrylate] | 14.4 ± 0.6% | 55.8 ± 0.4 | 67.1 ± 1.4 | no depletion | 880 ± 119 | 1350 ± 172 | 90.3 ± 6.6 | non-sensitizer | 0.0795 ± 0.0001 L mol^–1 min^–1 |  |  |  |  |  |  |  |
| O=C=Nc1ccccc1 [A5, phenyl isocyanate] | 100% | 10.2 ± 0.7 | 100 |  |  |  | 48.4 ± 1.1 | potential respiratory sensitizer | ≥2368 ± 309 L mol^–1 min^–1 | < 1 | < 1 | < 1 | ≥3.37 |  |  |  |
| O=C1OC(=O)c2c(Cl)c(Cl)c(Cl)c(Cl)c21 [C3, tetrachlorophthalic anhydride] | 100% | 11.5 ± 1.8 | 99.2 ± 0.7 |  |  |  | 83.5 ± 0.7 | potential respiratory sensitizer | ≥9816 ± 858 L mol^–1 min^–1 | 24.3 ± 0.6 | < 1 | < 1 | 3.99 |  |  |  |
| CC1(C)CC(N=C=O)CC(C)(CN=C=O)C1 (stereo not shown) [B2, isophorone diisocyanate] | 100% | 21.5 ± 0.3 | 100 |  |  |  | 28.0 | potential respiratory sensitizer | 256 ± 6 L mol^–1 min^–1 |  |  |  | 2.41 |  |  |  |
| C=CC(=O)OC [F2, methyl acrylate] | 16.6 ± 0.4% | 55.5 ± 0.7 | 67.9 ± 1.6 | no depletion |  |  | 86.5 ± 5.2 | non-sensitizer | 0.108 ± 0.005 L mol^–1 min^–1 |  | 629 ± 48 | 943 ± 63 | –0.97 |  |  |  |
| O=C(O)c1ccc2c(c1)C(=O)OC2=O [C2, trimellitic anhydride] | 100% | 15.2 ± 0.6 | 100 |  | < 1 | 1 | 59.9 ± 22.0 | potential respiratory sensitizer | ≥22271 ± 1975 L mol^–1 min^–1 |  |  |  | 4.35 | 110 ± 10 |  |  |
| Cc1c(N=C=O)cccc1N=C=O [A3, 2,6-toluene diisocyanate] | 100% | 20.7 ± 1.4 | 100 |  |  |  | 26.5 ± 0.7 | potential respiratory sensitizer | ≥20880 ± 695 L mol^–1 min^–1 | < 1 | < 1 | < 1 | ≥4.32 |  |  |  |
| O=C1OC2(c3ccc(O)cc3Oc3cc(O)ccc32)c2ccc(N=C=S)cc21 [B3, fluorescein isothiocyanate] | 100% | 56.5 ± 0.3 | 100 | no depletion |  |  | 61.1 | potential respiratory sensitizer | 15.1 ± 2.6 L mol^–1 min^–1 |  | 8.21 ± 0.18 | 3500 ± 236 |  |  |  |  |
| O=C=NCCCCCCN=C=O [B1, hexamethylene diisocyanate] | 100% | 23.3 ± 0.3 | 98.7 ± 2.2 |  |  |  | 41.6 ± 7.3 | potential respiratory sensitizer | 451 ± 33 L mol^–1 min^–1 |  |  |  | 2.65 |  |  |  |
| O=C=Nc1ccc(Cc2ccc(N=C=O)cc2)cc1 [A4, 4,4′-methylene diphenyl diisocyanate] | 100% | 22.9 ± 4.4 | 100 |  |  |  | 23.0 ± 6.2 | potential respiratory sensitizer | ≥20015 ± 4486 L mol^–1 min^–1 | 5.9 ± 1 | < 1 | 4.6 ± 0.3 |  |  |  |  |
| O=[N+]([O-])c1ccc(S(=O)(=O)O)c([N+](=O)[O-])c1 [E5, 2,4-dinitrobenzenesulfonic acid] | 5.9% and 5.9 ± 0.3% | 0.9 ± 0.1 | 0 | no depletion |  |  | 27.4 | non-sensitizer | not reactive |  |  |  |  |  | did not show any significant signal depletion; also recorded: no depletion | no depletion |
